Test results: PMC6643147 (International Journal of Biological Sciences, 2019)

Target: PI3Kα (Homo sapiens, UniProt P42336)
Assay: cell-free ADP-Glo kinase assay with recombinant PI3Kα and poly-EY substrate
Type: biochemical

Sequence of PI3Kα (P42336 whole entry): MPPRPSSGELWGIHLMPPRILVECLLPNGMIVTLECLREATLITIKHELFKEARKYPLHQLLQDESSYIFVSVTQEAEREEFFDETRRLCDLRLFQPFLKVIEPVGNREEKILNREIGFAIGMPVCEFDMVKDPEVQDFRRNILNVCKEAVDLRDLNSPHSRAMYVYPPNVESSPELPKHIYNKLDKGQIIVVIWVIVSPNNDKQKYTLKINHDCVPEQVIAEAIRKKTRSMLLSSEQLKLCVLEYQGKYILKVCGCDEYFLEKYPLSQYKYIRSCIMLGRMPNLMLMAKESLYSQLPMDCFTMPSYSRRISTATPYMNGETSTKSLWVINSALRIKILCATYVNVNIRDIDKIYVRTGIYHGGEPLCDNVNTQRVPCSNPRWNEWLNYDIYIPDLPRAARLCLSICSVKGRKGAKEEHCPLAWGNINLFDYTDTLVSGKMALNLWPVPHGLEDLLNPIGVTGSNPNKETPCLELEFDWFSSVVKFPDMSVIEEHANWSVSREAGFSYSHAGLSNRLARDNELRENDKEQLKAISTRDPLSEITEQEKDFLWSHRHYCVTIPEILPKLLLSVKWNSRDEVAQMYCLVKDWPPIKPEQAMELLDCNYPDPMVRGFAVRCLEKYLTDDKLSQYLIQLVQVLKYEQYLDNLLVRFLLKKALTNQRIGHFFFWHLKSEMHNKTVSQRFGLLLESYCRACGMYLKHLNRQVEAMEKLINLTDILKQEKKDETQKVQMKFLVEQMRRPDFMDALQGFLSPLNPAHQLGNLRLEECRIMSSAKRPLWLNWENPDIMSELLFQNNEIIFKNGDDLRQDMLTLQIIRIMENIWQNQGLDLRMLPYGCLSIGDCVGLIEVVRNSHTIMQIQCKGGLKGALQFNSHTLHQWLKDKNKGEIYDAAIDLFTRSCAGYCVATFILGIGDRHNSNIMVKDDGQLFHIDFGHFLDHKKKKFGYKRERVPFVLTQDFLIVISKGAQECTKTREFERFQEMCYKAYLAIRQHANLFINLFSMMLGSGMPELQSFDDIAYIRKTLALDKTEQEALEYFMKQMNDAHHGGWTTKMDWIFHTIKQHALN
Sequence of PI3Kα (P27986 2-724, further chain): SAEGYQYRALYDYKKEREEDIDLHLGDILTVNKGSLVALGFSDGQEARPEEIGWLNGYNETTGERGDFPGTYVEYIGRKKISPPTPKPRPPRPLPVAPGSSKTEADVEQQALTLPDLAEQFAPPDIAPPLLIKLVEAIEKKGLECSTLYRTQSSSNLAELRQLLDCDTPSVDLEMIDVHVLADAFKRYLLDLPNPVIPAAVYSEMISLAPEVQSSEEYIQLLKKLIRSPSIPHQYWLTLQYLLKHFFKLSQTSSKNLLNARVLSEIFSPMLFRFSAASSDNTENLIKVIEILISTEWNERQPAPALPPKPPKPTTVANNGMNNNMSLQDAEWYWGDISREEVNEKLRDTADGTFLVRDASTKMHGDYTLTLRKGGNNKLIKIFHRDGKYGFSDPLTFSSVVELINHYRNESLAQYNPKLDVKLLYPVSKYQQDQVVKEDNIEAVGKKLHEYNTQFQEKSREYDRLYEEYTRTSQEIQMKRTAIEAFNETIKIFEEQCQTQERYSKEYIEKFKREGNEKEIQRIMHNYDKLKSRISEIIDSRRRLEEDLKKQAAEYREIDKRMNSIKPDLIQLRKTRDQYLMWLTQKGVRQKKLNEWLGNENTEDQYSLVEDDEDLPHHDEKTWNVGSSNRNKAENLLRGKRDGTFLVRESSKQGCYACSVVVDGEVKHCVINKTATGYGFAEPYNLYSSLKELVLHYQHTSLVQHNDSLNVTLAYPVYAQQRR

## OCCN1CCN(CC/C=C2/c3ccccc3Sc3ccc(C(F)(F)F)cc32)CC1 [flupentixol]
  IC50: 127 ± 5.87 nM
